This is an account of results in article PMC8899820, “Pharmacokinetics, Tissue Distribution, and Excretion Characteristics of a Radix Polygoni Multiflori Extract in Rats” (Frontiers in Pharmacology, 2022).

The conditions of data set [1]: RPM extract 36 g/kg p.o., rat plasma, Mean ± SD, n = 6; ref Cheng et al., 2020; cited from earlier work.
A short description of data set [2]: Tissue distribution of RPM constituents after oral RPM extract. Particulars: Sprague-Dawley, rat, po, 18 g/kg.
Experimental: For the tissue distribution study, 18 rats were randomly divided into three groups (n = 6, each) and orally administered 18 g/kg RPM extract. The rats under isoflurane anesthesia were sacrificed by bleeding from the abdominal aorta at 5, 15, and 60 min (six rats per time point) after gavage with 18 g/kg RPM extract. Subsequently, the heart, liver, spleen, lung, kidney, brain, stomach, small intestine, bladder, and gonads (testes of male rats, and uterus and ovaries of female rats) were immediately collected. An accurately weighed amount of fresh tissue sample (0.25 g) was individually homogenized with normal saline (1 ml) and transferred (50 μL) as a tissue homogenate to 1.5 ml centrifuge tubes for use as the tissue samples. All tissue samples were stored at −70°C until analysis.
Samples were prepared using the protein precipitation process. […] The tissue samples were homogenized in four parts of ice-cold 0.9% saline solution and then centrifuged at 4°C and 12,000 × g for 10 min to obtain tissue homogenates. […] Tissue homogenate, urine, bile and fecal samples were subjected to a similar process as the rat plasma samples.
For the tissue distribution study, 18 rats were randomly divided into three groups (n=6, each), and orally administered with 18 g/kg RPM extract. The rats were sacrificed at 5, 15, 60 min after orally administering RPM. Subsequently, the heart, liver, spleen, lung, kidney, brain, stomach, small intestine, bladder, gonad (testes of male rats, uterus and ovaries of female rats) were immediately collected. An accurately weighed amount of fresh tissue sample (0.25 g) was individually homogenized with normal saline (1 mL) and transferred (50 μL) as a tissue homogenate to 1.5 mL centrifuge tubes for use as the tissue samples.
Data set [3] in a line: Plasma pharmacokinetics of RPM constituents after oral RPM extract. The settings on record: for time at which C max was exhibited: RPM extract p.o.; for plasma concentrations: RPM extract 6, 18 and 36 g/kg p.o.
A short description of data set [4]: Biliary excretion in bile duct drained rats after oral RPM extract. The settings on record: single p.o. RPM extract 18 g/kg, rat bile.
Experimental: (§1) For the excretion study, the rats were housed singly in metabolic cages with urine collection tubes kept at 4 °C during sample collection. Urine and fecal samples were collected at time intervals of 0–4, 4–8, 8–24, 24–32, and 32–48 h after a single dose of RPM extract at 18 g/kg and then weighed. Another six rats were anesthetized with pentobarbital, fixed in the supine position and subjected to bile duct drainage surgery, and the abdominal wound was sutured. Blank bile samples were collected before the administration of RPM. The rats were weighed, and the state of the rats was observed. Subsequently, they were orally administered 18 g/kg RPM extract. The bile samples were collected at time intervals of 0–1, 1–2, 2–4, 4–6, 6–8, 8–24, 24–32 and 32–48 h. The urine, feces, and bile samples were stored at −70°C until use.
(§2) Samples were prepared using the protein precipitation process. […] After vortex shaking for 5 min and centrifugation at 14,000 g for 5 min, 150 μL of the organic layer was transferred to a clean tube and evaporated to dryness at 25°C under a stream of nitrogen. The residue was reconstituted in 50 μL of the initial mobile phase and subjected to another round of centrifugation at 14,000 g for 5 min, and 5 μL of the supernatant was injected for LC–MS/MS analysis. […] Urine and bile samples were centrifuged at 4°C and 12,000 × g for 15 min. Fecal samples were homogenized in 0.9% saline and then centrifuged at 4°C and 12,000 × g for 15 min to gather the fecal homogenates. Tissue homogenate, urine, bile and fecal samples were subjected to a similar process as the rat plasma samples.
(§3) For the excretion study, 6 rats were placed in metabolic cage after orally administered with 18 g/kg RPM extract, and urine, feces samples were collected at time intervals of 0–4, 4–8, 8–24, 24–32, 32–48, 48–60, and 60–72 h. Another 6 rats were anesthetized with pentobarbital, fixed in the supine position and performed bile duct drainage operation, and the abdominal wound was sutured. […] Subsequently, they were orally administered with 18 g/kg RPM extract. The bile samples were collected at time intervals of 0–1, 1–2, 2–4, 4–6, 6–8, 8–24, 24–32 and 32–48 h. The urine, feces, and bile samples were stored at −70 °C until use.
A short description of data set [5]: Excretion into urine and feces and mass balance after oral RPM extract. The settings on record: for dose excreted: Sprague-Dawley, rat, po.
Experimental: as §1, §2, §3
The nature of data set [6]: Dose-exposure relationship (power function model with confidence interval method).
Experimental: The pharmacokinetic parameters, including the area under the plasma concentration-time curve from time zero to time t (AUC0-t) to time infinity (AUC0-∞), the time to reach the maximum plasma concentration (T max), the elimination half-time (t 1/2), and the maximum plasma concentration (C max), were calculated using the pharmacokinetic software Phoenix® WinNonlin®, version 7.0 (Scientific Consulting Inc., Apex, NC, United States). Data are expressed as the mean ± standard deviation (SD) for each group. The dose-exposure relationship was evaluated by the power function model combined with the confidence interval method ([Smith et al., 2000]; [Sethuraman et al., 2007]; [Hummel et al., 2009]). First, the administration dose, AUC0-∞ and C max were logarithmically transformed, and then a linear regression was performed to obtain the curve correlation coefficient (R^2), slope and 90% confidence interval (90% CI).
[7] abbreviates: Sprague-Dawley, rat, plasma, po, 6 g/kg.
The mark [8] stands for this setting: Sprague-Dawley, rat, plasma, po, 18 g/kg.
Setting [9] is: feces, Recovery in feces (%), mass balance, 18 g/kg RPM extract p.o., feces collected 0–72 h.
[10] abbreviates: urine, Recovery in urine (%), mass balance, 18 g/kg RPM extract p.o., urine collected 0–72 h.
[11] abbreviates: single p.o. RPM extract 18 g/kg, rat feces.
Setting [12] is: single p.o. RPM extract 18 g/kg, rat urine.
[13] abbreviates: AUC0-∞ vs p.o. dose of RPM extract, critical interval 0.88–1.12.
[14] abbreviates: C max vs p.o. dose of RPM extract, critical interval 0.80–1.20.
Where [15] appears, read: log AUC0-∞ vs log p.o. dose of RPM extract, critical interval 0.88–1.12.
[16] abbreviates: log C max vs log p.o. dose of RPM extract, critical interval 0.80–1.20.
Where [17] appears, read: both, bladder, AUC0-t in bladder, rat tissue: bladder, 18 g/kg RPM extract p.o., tissues collected at 5, 15, 60 min.
The mark [18] stands for this setting: both, heart, AUC0-t in heart, rat tissue: heart, 18 g/kg RPM extract p.o., tissues collected at 5, 15, 60 min.
The mark [19] stands for this setting: both, intestine, AUC0-t in intestine, rat tissue: intestine, 18 g/kg RPM extract p.o., tissues collected at 5, 15, 60 min.
Setting [20] is: both, kidney, AUC0-t in kidney, rat tissue: kidney, 18 g/kg RPM extract p.o., tissues collected at 5, 15, 60 min.
Where [21] appears, read: both, liver, AUC0-t in liver, rat tissue: liver, 18 g/kg RPM extract p.o., tissues collected at 5, 15, 60 min.
The mark [22] stands for this setting: both, lung, AUC0-t in lung, rat tissue: lung, 18 g/kg RPM extract p.o., tissues collected at 5, 15, 60 min.
Where [23] appears, read: both, spleen, AUC0-t in spleen, rat tissue: spleen, 18 g/kg RPM extract p.o., tissues collected at 5, 15, 60 min.
Where [24] appears, read: both, stomach, AUC0-t in stomach, rat tissue: stomach, 18 g/kg RPM extract p.o., tissues collected at 5, 15, 60 min.
The mark [25] stands for this setting: female, uterus, AUC0-t in uterus, rat tissue: uterus, 18 g/kg RPM extract p.o., tissues collected at 5, 15, 60 min.

Like-named read-outs stand apart in the source and are kept apart here.

In the case of `O=C1c2cccc(O)c2C(=O)c2c(O)cc(CO)cc21` [Aloe-emodin, aloe-emodin], the “AUC0-∞” value in data set [1] was 0.0313 ± 0.0127 µM·h. Further, the AUC(0-t) was 0.027 ± 0.012 µM·h in data set [1]; 0.00106 µM·h in data set [2] (both, brain); 0.0169 µM·h in data set [2] (both, heart); 0.00733 µM·h in data set [2] (both, intestine); 0.00977 µM·h in data set [2] (both, kidney); 0.0555 µM·h in data set [2] (both, liver). Besides, the AUC(0-t) in data set [2] (both, lung) worked out at 0.0313 µM·h; in data set [2] (both, spleen), 0.0525 µM·h; in data set [2] (both, stomach), 0.0238 µM·h; in data set [2] (female, ovary), 0.00666 µM·h; in data set [3] (setting [7]) it was 0.00832 ± 0.00416 µM·h; in data set [3] (setting [8]), 0.0254 ± 0.0097 µM·h. Further, the results for the Cmax in data set [1], in data set [3] (setting [7]) and in data set [3] (setting [8]) were 42 ± 11.5 nM, 8.25 ± 7.47 nM and 31.7 ± 3.03 nM, respectively. For the same compound, the “time at which C max was exhibited” value in data set [3] (rat plasma) was at most 20 min. Further, the AUC(0-inf) in data set [3] (setting [7]) worked out at 0.0124 ± 0.007 µM·h; in data set [3] (setting [8]), 0.0324 ± 0.0144 µM·h. For the same compound, the MRT inf in data set [3] (setting [7]) worked out at 9.61 ± 8.77 h; in data set [3] (setting [8]) it was 4.65 ± 3.53 h. Besides, the time of peak concentration (Tmax) in data set [3] (setting [7]) is 0.29 ± 0.1 h. Also, the half-life in data set [3] (setting [7]) is 8.46 ± 7.14 h; in data set [3] (setting [8]), 5.09 ± 3.38 h. For the same compound, in data set [4], the “cumulative excretion into bile” value stood at 61.1 ± 8.66 nmol. Moreover, the dose excreted is 21.7% in data set [5] (setting [9]); 31.4% in data set [5] (urine and feces, Recovery in urine and feces (%), mass balance, 18 g/kg RPM extract p.o., urine plus feces, 0–72 h); 9.69% in data set [5] (setting [10]). The “cumulative excretion into feces” value in data set [5] (setting [11]) came out at 43.7 ± 6.18 nmol. Moreover, in data set [5] (setting [12]), the “cumulative excretion into urine” value is 19.3 ± 5.44 nmol. Further, the “Conclusion (dose-exposure relationship)” value in data set [6] (setting [13]) and in data set [6] (setting [14]) was “Uncertainty of linear relationship” throughout. In addition, the “Slope (90%CI)” value in data set [6] (setting [15]) was 0.582 (0.278–0.885); in data set [6] (setting [16]), 1.07 (0.795–1.35).
As for `Cc1cc(O)c2c(c1)C(=O)c1cccc(O[C@@H]3O[C@H](CO)[C@@H](O)[C@H](O)[C@H]3O)c1C2=O` [CG, chrysophanol-8-O-β-D-glucoside], the plasma concentrations result in data set [3] (rat plasma) was “too low to be detected”.
Regarding `Cc1cc(O)c2c(c1)C(=O)c1cccc(O)c1C2=O` [Chrysophanol], in data set [1], the “AUC0-∞” value was 0.0404 ± 0.00736 µM·h. Besides, the AUC(0-t) was 0.0169 ± 0.00647 µM·h in data set [1]; 0.0376 µM·h in data set [2] (setting [17]); 0.0311 µM·h in data set [2] (setting [18]); 0.0277 µM·h in data set [2] (setting [19]); 0.0132 µM·h in data set [2] (setting [20]); 0.0273 µM·h in data set [2] (setting [21]). Also, the AUC(0-t) in data set [2] (setting [22]) turned out to be 0.0476 µM·h; in data set [2] (setting [23]) it was 0.0503 µM·h; in data set [2] (both, spleen, AUC0-t in the spleen, RPM extract 18 g/kg p.o., rat spleen, sampling 5, 15, 60 min) it was 0.0503 µM·h; in data set [2] (setting [24]) it was 0.0345 µM·h; in data set [2] (setting [25]), 0.029 µM·h; in data set [3] (setting [7]), 0.0748 ± 0.0589 µM·h. Further, the AUC(0-t) in data set [3] (setting [8]) was 0.0198 ± 0.00941 µM·h. Further, the values for the Cmax in data set [1], in data set [3] (setting [7]) and in data set [3] (setting [8]) were 7.48 ± 2.21 nM, 9.36 ± 3.26 nM and 7.87 ± 2.19 nM, respectively. Also, the AUC(0-inf) in data set [3] (setting [7]) is 0.34 ± 0.195 µM·h. For the same compound, in data set [3] (setting [7]), the MRT inf was found to be 40.3 ± 23.3 h. In addition, the figures for the Tmax in data set [3] (setting [7]) and in data set [3] (setting [8]) were 1.03 ± 0.96 h and 3.51 ± 3.06 h, respectively. Further, in data set [3] (setting [7]), the half-life is 26.3 ± 14.4 h. Further, the “Conclusion (dose-exposure relationship)” value in data set [6] (setting [13]) and in data set [6] (setting [14]) was “Nonlinear correlation” in each case. Also, the “Slope (90%CI)” value in data set [6] (setting [15]) was “–0.667 (–1.14 to –0.193)”; in data set [6] (setting [16]) it was “–0.158 (-0.337–0.021)”.
`COc1cc(O[C@@H]2O[C@H](CO)[C@@H](O)[C@H](O)[C@H]2O)c2c(c1)C(=O)c1cc(C)cc(O)c1C2=O` [PG, physcion-8-O-β-D-glucoside]: the “AUC0-∞” value in data set [1] was 0.188 ± 0.0186 µM·h. Moreover, the AUC(0-t) in data set [1] is 0.178 ± 0.0201 µM·h; in data set [2] (setting [17]), 0.205 µM·h; in data set [2] (both, brain, AUC0-t in brain, rat tissue: brain, 18 g/kg RPM extract p.o., tissues collected at 5, 15, 60 min), 0.125 µM·h; in data set [2] (setting [18]) it was 1.64 µM·h; in data set [2] (setting [19]), 0.692 µM·h; in data set [2] (setting [20]), 3.21 µM·h. Besides, the AUC(0-t) in data set [2] (setting [21]) is 3.38 µM·h; in data set [2] (setting [22]), 0.842 µM·h; in data set [2] (setting [23]) it was 2.69 µM·h; in data set [2] (setting [24]) it was 1.29 µM·h; in data set [2] (female, ovary, AUC0-t in ovary, rat tissue: ovary, 18 g/kg RPM extract p.o., tissues collected at 5, 15, 60 min), 0.614 µM·h; in data set [2] (setting [25]), 0.735 µM·h. In addition, the AUC(0-t) is 0.0806 µM·h in data set [2] (male, testis, AUC0-t in testis, rat tissue: testis, 18 g/kg RPM extract p.o., tissues collected at 5, 15, 60 min); 0.0777 ± 0.00612 µM·h in data set [3] (setting [7]); 0.176 ± 0.0168 µM·h in data set [3] (setting [8]). Besides, the Cmax in data set [1] is 42.1 ± 10.9 nM; in data set [3] (setting [7]), 16.8 ± 4.1 nM; in data set [3] (setting [8]), 34.2 ± 4.59 nM. Besides, the “MRT0-∞” value in data set [1] was 8.58 ± 1.72 h. For the same compound, the “t 1/2” value in data set [1] is 6.13 ± 1.06 h. Moreover, the “time at which C max was exhibited” value in data set [3] (rat plasma) is recorded as at most 20 min. Moreover, the total exposure AUC(0-inf) stood at 0.0919 ± 0.0145 µM·h in data set [3] (setting [7]) and 0.192 ± 0.0126 µM·h in data set [3] (setting [8]). In addition, the MRT inf in data set [3] (setting [7]) amounted to 7.55 ± 1.48 h; in data set [3] (setting [8]), 9.64 ± 2.05 h. The Tmax came to 0.29 ± 0.1 h in data set [3] (setting [7]) and 0.26 ± 0.13 h in data set [3] (setting [8]). The half-life in data set [3] (setting [7]) is 4.83 ± 0.99 h; in data set [3] (setting [8]) it was 7.09 ± 2.12 h. The “cumulative excretion into bile” value in data set [4] is 18.2 ± 3.29 nmol. Moreover, the dose excreted in data set [5] (setting [9]) was 11.6%; in data set [5] (urine and feces, recovery from the urine and feces, single p.o. RPM extract 18 g/kg, rats), 16.4%; in data set [5] (setting [10]) it was 4.83%. The “cumulative excretion into feces” value in data set [5] (setting [11]) came to 13.6 ± 1.12 nmol. Moreover, in data set [5] (setting [12]), the “cumulative excretion into urine” value turned out to be 5.53 ± 2.08 nmol. The “Conclusion (dose-exposure relationship)” value in data set [6] (setting [13]) and in data set [6] (setting [14]) was “Nonlinear correlation” in each case. For the same compound, the “Slope (90%CI)” value in data set [6] (setting [15]) is reported as 0.429 (0.326–0.532); in data set [6] (setting [16]) it was 0.524 (0.396–0.652).
On to `O=C(O)c1cc(O)c2c(c1)C(=O)c1cccc(O)c1C2=O` [Rhein, rhein], for which, in data set [1], the “AUC0-∞” value is 0.00814 ± 0.00178 µM·h, the AUC(0-t) is 0.00391 ± 0.00223 µM·h and the Cmax was 3.74 ± 0.84 nM. Moreover, in data set [3] (RPM extract 18 g/kg p.o., rat plasma, Mean ± SD, n = 6), the Cmax amounted to 3.72 ± 1.25 nM. Moreover, in data set [3] (setting [8]), the AUC(0-t) was 0.00426 ± 0.00299 µM·h and the Tmax amounted to 0.42 ± 0.14 h. Besides, the plasma concentration entry in data set [3] (rats dosed with 6 g/kg RPM, plasma) is reported as “could not be detected”. Moreover, in data set [4], the “cumulative excretion into bile” value was 45.0 ± 8.41 nmol. In data set [5] (setting [11]), the detection in feces result was “not detected”. Further, the detection in urine entry in data set [5] (setting [12]) is “not detected”. The “Conclusion (dose-exposure relationship)” value in data set [6] (setting [14]) is reported as “Nonlinear correlation”. In data set [6] (setting [16]), the “Slope (90%CI)” value is given as 0.034 (-0.482–0.550).
For the compound `COc1cc(O)cc2c1C(=O)c1c(O)cc(C)cc1C2=O` [questin], the plasma concentrations result in data set [3] (rat plasma) is listed as “too low to be detected”.

The term AUC(0-t) denotes the area under the concentration-time curve up to a stated or last time point. The Cmax is the highest concentration seen after dosing. What is called AUC(0-inf) is total exposure, with the tail of the curve extrapolated. Higher therefore signals high exposure. The MRT inf is the average time that molecules of a dose stay in the body. Broadly, the Tmax is the time from dosing to the highest level. In general, half-life refers to how long it takes for the measured level to halve. Read a high half-life as slow decline.
